Data as given in patent US20260176262A1, “KRAS INHIBITORS, PREPARATION METHOD THEREFOR, AND PHARMACEUTICAL USE THEREOF” (ABBISKO THERAPEUTICS CO., LTD., priority 2021, published 2026).
Read-outs that look alike come from different tables or passages of the source.

Columns and labels:
[1] = in vivo; conditions: male, ICR, mouse, po, 10 mg/kg
Protocol: (§1) ICR mice male N=3 original source: Shanghai Sippr-Bk Lab Animal Co., Ltd.
(§2) Single oral (PO) administration in ICR mice: The compounds were weighed and added to the solvent of 0.5% CMC+1% Tween 80 respectively, well shaken, and ultrasonicated to get a light yellow suspension. 3 mice were administered orally after fasting overnight. The dose was 10 mg/kg.
(§3) About 90 μL/timepoint blood was collected through the orbital cavity, anticoagulated with sodium heparin, placed on ice after collection, and centrifuged to separate the plasma within 1 hour (centrifugation conditions: 8000 rpm, 6 m 2-8C). The blood collection timepoints were 0, 0.25, 0.5, 1, 2, 4, 6, 8 and 24 h. The samples were stored in a −20° C. refrigerator.
(§4) The plasma sample was 40 μL, 160 μL of ice-cold acetonitrile containing internal standard was added, vortexed for 1 minute, and centrifuged at 18,000 rpm for 10 minutes. The supernatant was transferred to a 96-well plate, and 5 μL was injected into LC-MS/MS for analysis.

[2] = test system: AGS cell; experiment: Anti-proliferative 2D CTG assay, AGS cells; type: cell-based; conditions: Homo sapiens, 72 h, AGS cells, incubated 3 days, CTG, read-out: AGS cell IC50
How it was run: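 Cells seeded at 1000/well overnight, then treated with 10-point 1:5 dilutions ([…], 0.1% DMSO) for 3 days at 37° C. Viability read by CellTiter-Glo luminescence; % inhibition versus HPE/ZPE controls, IC50 from four-parameter fit.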

[3] = molecular target: KRAS^G12D/cRAF (Homo sapiens, UniProt P01116, G12D); experiment: KRAS G12D/cRAF binding test (Alphalisa); conditions: His-tagged KRAS G12D + GMPPNP, GST-tagged cRAF
How it was run: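 His-tagged KRAS G12D loaded with GMPPNP was incubated with compound (8-point 3-fold series from 5 mM DMSO stock) and then GST-cRAF for 15 min at room temperature. AlphaLISA detection followed after 60 min. IC50 came from a four-parameter fit of signal ratios against the DMSO control.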

[4] = Pharmacokinetic experiment in mice; conditions: male, ICR, mouse, plasma
Protocol: as §1, §2, §3, §4

Chain of KRAS^G12D/cRAF (P01116 1-188 isoform P01116-2 G12D): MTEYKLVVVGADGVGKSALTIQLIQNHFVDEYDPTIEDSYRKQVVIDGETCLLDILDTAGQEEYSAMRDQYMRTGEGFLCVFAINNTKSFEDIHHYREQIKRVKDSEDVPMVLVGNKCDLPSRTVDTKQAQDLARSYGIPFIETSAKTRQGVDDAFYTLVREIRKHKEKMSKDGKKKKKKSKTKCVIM

| SMILES | AUC(0-t) [1] | half-life [1] | IC50 ([2]; class symbols) | IC50 ([3]; class symbols) | AUC(0-t) ([4]; po, 10 mg/kg) | half-life ([4]; po, 10 mg/kg) | IC50 ([2]; numeric values) | IC50 ([3]; numeric values) | AUC(0-t) ([4]; iv, 2 mg/kg) | half-life ([4]; iv, 2 mg/kg) | bioavailability ([4]; po, 10 mg/kg) |
| --- | --- | --- | --- | --- | --- | --- | --- | --- | --- | --- | --- |
| [2H]C([2H])([2H])OCC12CCC(CN(c3nc(OC[C@@]45CCCN4C[C@H](F)C5)nc4c(F)c(-c5cc(O)c(F)c6ccc(F)c(C#C)c56)ncc34)C1)N2 (stereo partly drawn) [Example 14, 5-ethynyl-1,6-difluoro-4-(8-fluoro-2-(((2R,7aS)-2-fluorotetrahydro-1H-pyrrolizin-7a(5H)-yl)methoxy)-4-(1-((methoxy-d3)methyl)-3,8-diazabicyclo[3.2.1]octan-3-yl)pyrido[4,3-d]pyrimidin-7-yl)naphthalen-2-ol] | 607 ng·h/mL | 348 min | > 500 nM |  |  |  |  |  |  |  |  |
| C#Cc1c(F)ccc2cc(O)cc(-c3ncc4c(N5CC6CCC(C(C)OC)(C5)N6)nc(OC[C@@]56CCCN5C[C@H](F)C6)nc4c3F)c12 (stereo partly drawn) [Example 12, 5-ethynyl-6-fluoro-4-(8-fluoro-2-(((2R,7aS)-2-fluorotetrahydro-1H-pyrrolizin-7a(5H)-yl)methoxy)-4-(1-(1-methoxyethyl)-3,8-diazabicyclo[3.2.1]octan-3-yl)pyrido[4,3-d]pyrimidin-7-yl) naphthalen-2-ol] |  |  | < 50 nM | 50 to 500 nM | 1740 ng·h/mL | 432 min |  |  |  |  |  |
| C#Cc1c(F)ccc2cc(O)cc(-c3ncc4c(N5CC6CCC(C=C)(C5)N6)nc(OC[C@@]56CCCN5C[C@H](F)C6)nc4c3F)c12 (stereo partly drawn) [Example 5, 5-ethynyl-6-fluoro-4-(8-fluoro-2-(((2R,7aS)-2-fluorotetrahydro-1H-pyrrolizin-7a(5H)-yl)methoxy)-4-(1-vinyl-3,8-diazabicyclo[3.2.1]octan-3-yl)pyrido[4,3-d]pyrimidin-7-yl)naphthalen-2-ol] |  |  |  |  | 489 ng·h/mL | 378 min | 15 nM | 72 nM |  |  |  |
| [2H]C([2H])([2H])OC[C@@]12CC[C@@H](CN(c3nc(OC[C@@]45CCCN4C[C@H](F)C5)nc4c(F)c(-c5cc(O)cc6ccc(F)c(C#C)c56)nc(OC)c34)C1)N2 [Example 50, 5-ethynyl-6-fluoro-4-(8-fluoro-2-(((2R,7aS)-2-fluorotetrahydro-1H-pyrrolizin-7a(5H)-yl)methoxy)-5-methoxy-4-((1R,5S)-1-((methoxy-d3)methyl)-3,8-diazabicyclo[3.2.1]octan-3-yl)pyrido[4,3-d]pyrimidin-7-yl)naphthalen-2-ol] |  |  |  |  | 2660 ng·h/mL | 384 min | 6.5 nM | 10 nM | 1100 ng·h/mL | 402 min | 48% |
| [2H]C([2H])([2H])[C@@]12CC[C@@H](CN(c3nc(OC[C@@]45CCCN4C[C@H](F)C5)nc4c(F)c(-c5cc(O)cc6ccc(F)c(C#C)c56)ncc34)C1)N2 [Example 43, 5-ethynyl-6-fluoro-4-(8-fluoro-2-(((2R,7aS)-2-fluorotetrahydro-1H-pyrrolizin-7a(5 H)-yl)methoxy)-4-((1R,5S)-1-(methyl-d3)-3,8-diazabicyclo[3.2.1]octan-3-yl)pyrido[4,3-d]pyrimidin-7-yl)naphthalen-2-ol] |  |  |  |  | 733 ng·h/mL | 942 min | 1.5 nM | 4.6 nM | 214 ng·h/mL | 324 min | 5.8% |
| C#Cc1c(F)ccc2cc(O)cc(-c3ncc4c(N5C[C@H]6CC[C@@](C=C)(C5)N6)nc(OC[C@@]56CCCN5C[C@H](F)C6)nc4c3F)c12 [Example 57, 5-ethynyl-6-fluoro-4-(8-fluoro-2-(((2R,7aS)-2-fluorotetrahydro-1H-pyrrolizin-7a(5 H)-yl)methoxy)-4-((1R,5R)-1-vinyl-3,8-diazabicyclo[3.2.1]octan-3-yl)pyrido[4,3-d]pyrimidin-7-yl)naphthalen-2-ol] |  |  |  |  | 1790 ng·h/mL | 270 min | 8.1 nM | 15 nM | 375 ng·h/mL | 306 min | 95% |
